# Assay results as given in publication PMC12308805, “Ultrahigh-Throughput Virtual Screening Strategies against PPI Targets: A Case Study of STAT Inhibitors” (Journal of Chemical Information and Modeling, 2025).
# Square brackets hold non-standard residues; d marks the D form. Peptide text beside a SMILES is read from it. * marks the point of attachment. pY = N[C@@H](Cc1ccc(OP(=O)(O)O)cc1)C(=O)O; Bz = O=C(c1ccccc1)*
# Molecular target: T1, STAT3 (127–770) SH2 domain (Homo sapiens, UniProt P40763)
# T1 construct: For STAT3 (127–770), the final concentration of the protein was 200 nM; made in house
# T1 sequence (P40763 127-770): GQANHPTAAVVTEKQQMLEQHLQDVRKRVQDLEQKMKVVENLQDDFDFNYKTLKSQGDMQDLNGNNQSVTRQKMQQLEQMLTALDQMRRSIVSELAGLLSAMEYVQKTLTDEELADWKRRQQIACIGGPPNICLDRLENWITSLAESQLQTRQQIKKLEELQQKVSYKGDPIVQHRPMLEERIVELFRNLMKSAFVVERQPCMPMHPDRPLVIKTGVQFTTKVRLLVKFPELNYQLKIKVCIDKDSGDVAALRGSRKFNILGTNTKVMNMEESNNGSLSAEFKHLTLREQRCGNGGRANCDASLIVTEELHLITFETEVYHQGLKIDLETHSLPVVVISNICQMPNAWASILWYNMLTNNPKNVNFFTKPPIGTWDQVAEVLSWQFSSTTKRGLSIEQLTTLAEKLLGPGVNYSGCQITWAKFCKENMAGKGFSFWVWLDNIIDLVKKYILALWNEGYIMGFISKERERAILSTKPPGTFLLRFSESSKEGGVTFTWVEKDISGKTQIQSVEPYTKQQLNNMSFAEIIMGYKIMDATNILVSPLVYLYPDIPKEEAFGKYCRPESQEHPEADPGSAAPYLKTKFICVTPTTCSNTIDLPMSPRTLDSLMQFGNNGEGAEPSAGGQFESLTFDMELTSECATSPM
# Test: Fluorescence polarization assay (FP-assay), STAT3 SH2 domain
# Format: binding
# Parameters: key to identified as active in FP-assay: A compound was identified as active, if it had a mean IC50 value under 100 μM
# Details: not given
# Description: The respective protocols for the expression and purification of the STAT3 SH2 and STAT5b SH2 domains were published in our recent works. Fluorescence polarization assays (FP-assays) were performed on a Molecular Devices SpectraMax iD5Multimode Microplate Reader (San Jose, CA, USA) using Greiner black 384-well flat-bottom nonbinding microplates with 40 μL final well volumes. The fluorescent peptides (5-FAM-G(pTyr)-LPQTV-NH2 and 5-FAM-G(pTyr)-LVLDKW-NH2, purchased from GenScript Biotech Ltd., Piscataway, NJ, USA), as well as the proteins, were diluted with a buffer containing 50 mM NaCl, 10 mM HEPES (4-(2-hydroxyethyl)-1-piperazineethanesulfonic acid), 1 mM EDTA (ethylenediaminetetraacetic acid), 2 mM DTT (dithiothreitol), and 0.1% Triton X-100, pH 7.5. For STAT3 (127–770), the final concentration of the protein was 200 nM, and the fluorescent peptide (5-FAM-G(pTyr)-LPQTV-NH2) was added at a final concentration of 5 nM; for STAT5b (136–703), the final concentration of the protein was 500 nM, and the fluorescent peptide (5-FAM-G(pTyr)-LVLDKW-NH2) was added at a final concentration of 10 nM. The wells were treated with varying concentrations of inhibitors (1250 to 0.11 μM final concentrations). The final DMSO content was 2.5%. After mixing, the protein and inhibitors were incubated at room temperature for 30 min, then the fluorescent peptide was added, and the plate was incubated for another 20 min prior to the fluorescence readout (extinction wavelength: 475 nm, emission wavelength: 520 nm). The measurements were carried out in at least three biological replicates. Fluorescence polarization was calculated from the perpendicular and parallel fluorescence intensities and then plotted against concentration. The IC50 values were determined after fitting quadratic dose–response curves on the data points in GraphPad Prism 8.0.1. […] All plotted curves and data points for the hit compounds are included in Section 2 of the Supporting Information.
row,SMILES,identified as active in FP-assay
1,"O=C(O)c1[nH]c2ccccc2c1C(=O)O [S3_M5, [OH]C(=O)c([nH]1)c(C(=O)[OH])c(c12)cccc2]",active

# Same assay, conditions: FP-assay, mean IC50, at least three biological replicates
row,SMILES,IC50 [µM]
1,"Cc1cc(=O)c(C(=O)O)c(O)[nH]1 [S3_M16, [OH]C(=O)c1c(=O)cc(C)[nH]c1O]",111 ± 64.7
2,"O=C(O)c1[nH]c2ccccc2c1C(=O)O [S3_M5, [OH]C(=O)c([nH]1)c(C(=O)[OH])c(c12)cccc2]",53.2 ± 46.9

# System: STAT3
# Test: not given
# Details: sheet 6QHD_actives_decoys, retrospective screening set for STAT3 SH2 domain (PDB 6QHD); decoys are presumed inactives, not tested; ref DUD-E; cited from earlier work
row,SMILES,Type
1,CC[C@H](C)[C@H](O)C(=O)O[C@H](C(=O)O[C@H](C(=O)OC[C@H](O)[C@H](O)[C@H](O)[C@H](O)CO)[C@@H](C)CC)[C@@H](C)CC [Decoy861],Inactive (Decoy)
2,CCN(CC)Cc1c(C(=O)N/N=C/c2cc(Cl)ccc2OCc2c(F)cccc2Cl)nnn1-c1nonc1N [Decoy844],Inactive (Decoy)
3,COc1cc(/C(C)=N/NC(=O)c2nnn(-c3nonc3N)c2COc2ccc(F)cc2)ccc1OCc1ccc(Cl)cc1 [Decoy887],Inactive (Decoy)
4,CO[C@@H]1[C@H](O)[C@H](OC[C@H]2O[C@@H](O[C@@H]3CC[C@]4(C)[C@H](CC[C@@H]5[C@@H]4CC[C@@]4(C)[C@@H](C6=CC(=O)OC6)CC[C@]54O)C3)[C@@H](O)[C@@H](O)[C@H]2O)O[C@@H](C)[C@@H]1O [Decoy926],Inactive (Decoy)
5,OC[C@@H](O)[C@H](O[C@@H]1O[C@H](CO)[C@@H](O)[C@H](O)[C@H]1O)[C@@H](O)C(/C=N/Nc1ccccc1)=N/Nc1ccccc1 [Decoy791],Inactive (Decoy)
6,CC(=O)N[C@H]1[C@@H](OC(=O)CCn2c(=O)oc3ccccc32)O[C@@H](COC(C)=O)[C@@H](OC(C)=O)[C@H]1OC(C)=O [Decoy931],Inactive (Decoy)
7,CCCCN(C)S(=O)(=O)c1ccc(C(=O)Nc2ccc(S(=O)(=O)Nc3nc(C)cc(C)n3)cc2)cc1 [Decoy757],Inactive (Decoy)
8,CC(=O)OC[C@H]1O[C@@H](Oc2cc(O)cc(O)c2C(=O)CCc2ccc([N+](=O)[O-])cc2)[C@@H](OC(C)=O)[C@H](OC(C)=O)[C@H]1OC(C)=O [Decoy881],Inactive (Decoy)
9,C[C@@]1(c2cc3ccccc3o2)NC(=O)N(CC(=O)Nc2cccc(S(=O)(=O)N3CCCC3)c2)C1=O [Decoy779],Inactive (Decoy)
10,COc1cc([C@H]2c3cc(OC)c(O[C@H]4O[C@@H](CO)[C@@H](O)[C@@H](O)[C@H]4O)c(OC)c3C[C@@H](CO)[C@@H]2CO)cc(OC)c1O [Decoy823],Inactive (Decoy)
11,Cc1ccc(S(=O)(=O)Nc2ccccc2/C=N/CC(O)C/N=C/c2ccccc2NS(=O)(=O)c2ccc(C)cc2)cc1 [Decoy922],Inactive (Decoy)
12,CCOC(=O)CCCCC(=O)c1[nH]c(=O)[nH]c1CSc1nnc2c3ccccc3n(CCc3ccccc3)c2n1 [Decoy938],Inactive (Decoy)
13,CCC/C=C/[C@@H](C(=O)NCS(=O)(=O)c1ccc(C)cc1)N(Cc1ccco1)C(=O)c1c(O)cccc1O [Decoy942],Inactive (Decoy)
14,CCOC(=O)c1c(NC(=O)CCSc2nnc(COC)n2N)sc2c1CCCC2 [Decoy934],Inactive (Decoy)
15,COC(=O)c1sc2cc(SCC(=O)Nc3cc(OC)c(OC)c(OC)c3)ccc2c1/N=C(\O)C(F)(F)F [Decoy807],Inactive (Decoy)
16,CC[C@@H](C)[C@H](O)C(=O)O[C@H](C(=O)O[C@H](C(=O)OC[C@@H](O)[C@@H](O)[C@@H](O)[C@@H](O)CO)[C@@H](C)CC)[C@@H](C)CC [Decoy862],Inactive (Decoy)
17,CCOC(=O)c1c(NC(=O)CSc2n[nH]c(N/N=C/c3c[nH]c4ccccc34)n2)sc2c1CCC2 [Decoy751],Inactive (Decoy)

# Same assay, conditions: sheet 6QHD_actives_decoys; known STAT3 actives of the retrospective screening set; ref ChEMBL / literature; cited from earlier work
row,SMILES,Type (known STAT3 active)
1,CC(C)C[C@H](NC(=O)/C=C/c1ccc(OP(=O)(O)O)cc1)C(=O)N1CCC[C@H]1C(=O)N[C@@H](CCC(N)=O)Cc1ccc(O)cc1 [CHEMBL573903],Active
2,CC(C)C[C@H](NC(=O)/C=C/c1ccc(OP(=O)(O)O)cc1)C(=O)N1CCC[C@H]1C(=O)N[C@H](COCc1ccccc1)COC(N)=O [CHEMBL573902],Active
3,CC(C)C[C@H](NC(=O)[C@H](Cc1ccc(OP(=O)(O)O)cc1)NC(=O)CCc1ccccc1)C(=O)N1C[C@H]2C[C@H]2[C@H]1C(=O)N[C@@H](CCC(N)=O)C(=O)NCc1ccccc1 [CHEMBL370763],Active
4,CC(C)C[C@H](NC(=O)[C@H](Cc1ccc(OP(=O)(O)O)cc1)NC(=O)c1ccccc1)C(=O)N1CCC[C@H]1C(=O)N[C@@H](CCC(N)=O)C(=O)N[C@H](C(N)=O)[C@@H](C)O [CHEMBL425571] (Bz-[pY]LPQT-NH2),Active
5,CSCC[C@H](NC(=O)[C@H](CCC(N)=O)NC(=O)[C@H]1CCCN1C(=O)[C@H](CCCCN)NC(=O)[C@H](Cc1ccc(OP(=O)(O)O)cc1)NC(C)=O)C(=O)N[C@@H](Cc1c[nH]cn1)C(N)=O [CHEMBL160733] (Ac-[pY]K[dP]QMH-NH2),Active
6,CC(C)C[C@H](NC(=O)/C=C/c1ccc(OP(=O)(O)O)cc1)C(=O)N1CCC[C@H]1C(=O)NCCNC(N)=O [CHEMBL574636],Active
7,CC(=O)N[C@@H](Cc1ccc(OC(C(=O)O)C(=O)O)cc1)C(=O)N[C@@H](CC(C)C)C(=O)N1CCC[C@H]1C(=O)N[C@@H](CCC(N)=O)C(=O)N[C@H](C(=O)N[C@H](C(=O)O)C(C)C)[C@@H](C)O [CHEMBL231705],Active

# Same assay, conditions: sheet 6QHD_actives_decoys; retrospective screening set for STAT3 SH2 domain (PDB 6QHD); […]; ref DUD-E; cited from earlier work
row,SMILES,Type
1,CCCNC(=O)CN1CCN(c2cc(C(=O)O)c3cc(NS(=O)(=O)c4cccc(C)c4)ccc3n2)CC1 [Decoy646],Inactive (Decoy)
2,COc1cc(S(=O)(=O)N2CCCCC2)ccc1N/C=C1/C(=O)NC(=O)N(c2ccccc2)C1=O [Decoy344],Inactive (Decoy)
3,CCN1C(=O)[C@@](C)(C(=O)Nc2ccc(S(=O)(=O)Nc3nccs3)cc2)Oc2ccccc21 [Decoy608],Inactive (Decoy)

# Same assay, conditions: sheet 6QHD_actives_decoys; retrospective screening set for STAT3 SH2 domain (PDB 6QHD); decoys generated with DUD-E and presumed inactive, not tested; ref DUD-E; cited from earlier work
row,SMILES,Type
1,O=C(O)CN(CC(=O)O)CC1=C[C@H]2C(=CC1=O)Oc1cc(O)c(CN(CC(=O)O)CC(=O)O)cc1[C@@]21OC(=O)c2ccccc21 [Decoy652],Inactive (Decoy)
2,CCOC(=O)c1c(NC(=O)CSc2nnc(CNC(=O)c3ccco3)n2C)sc2c1CCC2 [Decoy722],Inactive (Decoy)
3,CCn1nc(C)c(CCN(C)c2ncc(C(=O)O)cc2NS(=O)(=O)c2ccc(C(C)=O)cc2)c1C [Decoy465],Inactive (Decoy)
4,CC[N+]1=c2cc3c(cc2CCC1)=Nc1cc2c(cc1O3)N(CCCC(=O)NCCCCCNC(=O)CCCC[C@@H]1SC[C@@H]3NC(=O)N[C@@H]31)C(C)(C)C=C2CS(=O)(=O)[O-] [Decoy583],Inactive (Decoy)
5,CCOC(=O)c1ccc(/N=C2\S[C@@H](CC(=O)Nc3ccc(C(=O)OCC)cc3)C(=O)N2CCc2ccc(Cl)cc2)cc1 [Decoy552],Inactive (Decoy)
6,CCCC(=O)C1=C(N2CCN(C3=C(C(=O)CCC)C(O)=C(C(=O)OC)C(C)(C)C3)CC2)CC(C)(C)[C@H](C(=O)OC)C1=O [Decoy436],Inactive (Decoy)
7,Cc1ccc(N(C[C@H](O)[C@@H](O)[C@H](O)CO)/N=N/c2cccc(S(=O)(=O)O)c2)cc1C [Decoy430],Inactive (Decoy)
8,CCCCCCCCCC(=O)O[C@@H]1[C@@H](O[C@@]2(CO)O[C@@H](CO)[C@@H](O)[C@H]2O)O[C@@H](CO)[C@@H](OC(=O)C(C)C)[C@H]1OC(=O)C(C)C [Decoy420],Inactive (Decoy)
9,CCOC(=O)Cn1nnnc1[C@@H](CC)N(CCc1cccc(C)c1)Cc1cc2cc(OCC)ccc2[nH]c1=O [Decoy609],Inactive (Decoy)
10,Nc1ccc(/N=N\c2ccc3cc(S(=O)(=O)O)c(/N=N/c4ccc(/N=N/c5ccc(N)cc5N)c(S(=O)(=O)O)c4)c(O)c3c2)c(N)c1 [Decoy383],Inactive (Decoy)
11,CCCn1c(O)nnc1SCC1=C(C(=O)OCC)[C@H](c2ccc(Cl)cc2)NC(=O)N1 [Decoy576],Inactive (Decoy)
12,COc1ccc(OC)c(-n2c(CNC(=O)c3ccc(S(=O)(=O)N(C)C)cc3)nnc2SCC(=O)Nc2ccc(F)cc2)c1 [Decoy528],Inactive (Decoy)
13,CC(=O)O[C@@H]1[C@@H](O)[C@@H](O[C@@H](C/N=C/c2c(O)cc(O)c3ccccc23)[C@@H](CO)O[C@H](O)C/N=C/c2c(O)cc(O)c3ccccc23)O[C@@H](CO)[C@H]1O [Decoy475],Inactive (Decoy)
14,Cc1ccc(S(=O)(=O)OC[C@H](OS(=O)(=O)c2ccc(C)cc2)[C@H](O)[C@H](O)[C@@H](COS(=O)(=O)c2ccc(C)cc2)OS(=O)(=O)c2ccc(C)cc2)cc1 [Decoy424],Inactive (Decoy)
